These results are taken from patent US6399628B1, “N-(aryl/heteroaryl) amino acid esters, pharmaceutical compositions comprising same, and methods for inhibiting alpha- amyloid peptide release and/or its synthesis by use of such compounds” (Athena Neurosciences, Inc., priority 1996, dated 2002).

As to `CCOC(=O)C(CC)Nc1ccc2ccccc2c1` (stereo not shown) [Example 39, 2-[N-(naphth-2-yl)amino]butanoic acid ethyl ester], the melting point – broadly, the temperature, or range, at which the solid turns liquid – was 81 to 83 °C.
